Data set [1] is described as follows: Solubility of the peptides in water and organic solvents. The format is physicochemical.
Data set [2] can be described thus: Stability of nucleic acid-containing peptide particles in water and at physiological salt strength. The format is physicochemical. The source says: It should be noted that a mixture of CD3 peptides and nucleic acid molecules can self-assemble to form stable particles in pure water; however, they are generally not stable and dissolve, responding to increasing salt strengths and higher temperatures.
Accordingly, in some embodiments, a mixture of fully-acetylated amphiphilic peptides (e.g., CD3ac peptides), partially-acetylated or non-acetylated amphiphilic peptides (e.g., CD3 peptides) and nucleic acid molecules can be prepared to form stable peptide particles containing nucleic acid molecules (e.g., DNA or RNA including siRNA). […] It was determined that the presence of CD3ac peptides stabilizes ssDNA-containing peptide particles at physiological conditions. All the three components co-precipitated to form ssDNA-containing peptide particles that were stable at the corresponding salt strength.

The nature of data set [3]: Size of CD3ac beads by SEM and dynamic light scattering. The format is physicochemical. To be noted: SEM and DLS; initially dissolved CD3ac 123×10^−6 M. Here is the method: Scanning electron microscopy (SEM) was carried out on a Hitachi S-4800. SEM sample holders were cooled to −196° C. before a drop of the bead suspension was directly applied to the cold metal surface. The frozen sample on the plate was subsequently lyophilized, sputtered with platinum and analyzed.
Dynamic light scattering was measured on an ALV/CGS-8F platform based goniometer system equipped with an ALV/-5000/E correlator and an Argon-Ion laser with a wavelength of […] (35 mW) at scattering angles between 30° and 150°. An ALV-5000/E correlator calculates the photon intensity autocorrelation function g2(t). All experiments were performed at T=293 K and evaluated by second order cumulant fit (considering previously determined spherical particle shape by SEM). Polydispersities were determined by the contin-algorithm at all angles and never exceeded 0.11. […] For both angular and concentration dependence, a hydrodynamic radius was calculated from the Stokes-formula
[formula] where rh is the hydrodynamic radius of spherical particles, D is the diffusion constant, kB is the Boltzmann constant, T is the absolute temperature and is the viscosity of water. A graph of 1/rh versus angle (concentration) was plotted and the hydrodynamic radius (rh0) was calculated by extrapolating both concentration and angle measurements to zero. […]

Data set [4] can be described thus: Particle diameter and corona thickness by negative staining TEM. The format is physicochemical. As to the method: PNPs were assembled by mixing stock solutions of CD3ac, Tfn-AF568 and Flutax-2 to yield final concentrations of 123 μM CD3ac, 6 μM Flutax-2 and 10 μg/mL Tfn-AF568 in H2O:EtOH (1:1, v/v). Emulsification was induced by a first dilution step (1:1, H2O) followed by an equilibration period of 15 minutes before the ethanol content was further reduced to […] by the second dilution step (1:1, H2O). 50 μL aliquots of the resulting suspension were applied to 24-well sitting drop crystallization plates (Hampton Research, Cryschem) and counter-evaporated 3 times against 1 mL H2O during six hours.
PNP samples were prepared as described above. 5 μL of PNPs suspended in H2O were applied to a carbon film coated copper grid (400 square mesh, Electron Microscopy Sciences) and dried. The sample was stained with 10 μL 1% uranyl acetate during one minute. Excess stain was removed with a filter paper and subsequently applied to a Tecnai G^2 Spirit BioTWIN.

A short description of data set [5]: Estimating bead volume and density of CD3ac precipitates. The format is physicochemical. As to the method: In order to estimate the density of CD3ac precipitates, beads (307.5×10^−6 M CD3ac starting concentration) were prepared large enough to exceed the diffraction limit of visible light. A low concentration of RB (10×10^−6 M) was co-precipitated to allow an estimate of the bead diameter by confocal fluorescence microscopy (1.35 μm) and facilitate counting on a hemacytometer (Hausser Scientific). An average of 72 beads were counted in an observed cell volume of 250,000 μm^3 that equals a bead volume fraction of 3.71×10^−4. A solution of 50 μL 307.5×10^−6M CD3ac thus contains a total bead volume of […] and the density of CD3ac can be determined (ρCD3ac≈1.35 g/cm^3). The logarithmic partition coefficient of RB in an aqueous solution of CD3ac beads was calculated according to […]

For the next data set, the system named is CHO cells. The experiment in a line: Release of encapsulated Flutax-2 into the cytosol of CHO cells. The format is cell-based, Chinese hamster. To be noted: 24 hours, 0.67 μM Flutax-2. As to the method: To assess whether binding and internalization of PNPs can result in the selective import of small molecule cargo, the release of encapsulated Flutax-2 into cells was analyzed 24 hours post addition of PNPFlutax-2^Tfn-AF568 into the cells (FIGS. 13A-13I). Flutax-2 is an Oregon Green (OG) modified derivative of paclitaxel(19), a mitotic inhibitor applied in cancer therapy (20). Unlike its unlabeled form, Flutax-2 is charged and water-soluble at the applied concentration and does consequently not permeate cell membranes. Thus, it was used a model compound to investigate efficiency and specificity of small molecule delivery by PNPs to the cytosol. […] Flutax-2 emission in the cytosol was averaged to quantify the amount of delivered compound into the cells.
CHO cell lines were grown in F12:DMEM 1:1 (Cellgro, 10-090) plus 10% fetal bovine serum (Gibco). […] Samples were fixed with 3% paraformaldehyde (Sigma, P6148) in PBS, mounted on glass slides using fluorescent mounting medium (Dako, 53023) and analyzed within 24 hours.
Fixed cells were analyzed on a Nikon Ti inverted microscope equipped with 60× Plan Apo NA 1.4 objective lens. DAPI fluorescence was excited with a 360/40 filter and collected with a 460/50 emission filter. Oregon Green fluorescence was excited with a 360/40 and collected with a 480/40 emission filter. […]

As to `CC(C)C[C@@H](NC(=O)[C@H](Cc1c[nH]c2ccccc12)NC(=O)[C@@H](CC(C)C)NC(=O)[C@H](Cc1c[nH]c2ccccc12)NC(=O)[C@@H](CC(C)C)NC(=O)[C@H](Cc1c[nH]c2ccccc12)NC(=O)[C@@H](N)CCCCN)C(=O)N[C@@H](Cc1c[nH]c2ccccc12)C(N)=O` (racemic) [CD1, H-LK-LW-DL-LW-DL-LW-DL-LW-NH2], the solubility in water result in data set [1] is reported as “water soluble”.

Take `CC(C)C[C@@H](NC(=O)[C@H](Cc1c[nH]c2ccccc12)NC(=O)[C@@H](CC(C)C)NC(=O)[C@H](Cc1c[nH]c2ccccc12)NC(=O)[C@@H](CC(C)C)NC(=O)[C@H](Cc1c[nH]c2ccccc12)NC(=O)[C@H](CCCCN)NC(=O)[C@@H](N)CCCCN)C(=O)N[C@@H](Cc1c[nH]c2ccccc12)C(N)=O` (racemic) [CD2, H-LK-LK-LW-DL-LW-DL-LW-DL-LW-NH2]: the solubility in water result in data set [1] was “water soluble”.

With `CC(C)C[C@@H](NC(=O)[C@H](Cc1c[nH]c2ccccc12)NC(=O)[C@@H](CC(C)C)NC(=O)[C@H](Cc1c[nH]c2ccccc12)NC(=O)[C@@H](CC(C)C)NC(=O)[C@H](Cc1c[nH]c2ccccc12)NC(=O)[C@H](CCCCN)NC(=O)[C@H](CCCCN)NC(=O)[C@@H](N)CCCCN)C(=O)N[C@@H](Cc1c[nH]c2ccccc12)C(N)=O` (racemic) [CD3, H-LK-LK-LK-LW-DL-LW-DL-LW-DL-LW-NH2], the solubility in water result in data set [1] is reported as “water soluble”. In data set [2], the “particle stability at increasing / physiological salt strength” value is “not stable” and the “particle stability in pure water” value is recorded as “stable”.

With `CC(=O)NCCCC[C@H](NC(C)=O)C(=O)N[C@@H](CCCCNC(C)=O)C(=O)N[C@@H](CCCCNC(C)=O)C(=O)N[C@@H](Cc1c[nH]c2ccccc12)C(=O)N[C@H](CC(C)C)C(=O)N[C@@H](Cc1c[nH]c2ccccc12)C(=O)N[C@H](CC(C)C)C(=O)N[C@@H](Cc1c[nH]c2ccccc12)C(=O)N[C@H](CC(C)C)C(=O)N[C@@H](Cc1c[nH]c2ccccc12)C(N)=O` (racemic) [CD3ac, Ac-LK(Ac)-LK(Ac)-LK(Ac)-LW-DL-LW-DL-LW-DL-LW-NH2], the solubility in water entry in data set [1] was “insoluble”. Besides, the “solubility in organic solvents” value in data set [1] (EtOH, iPrOH, DMSO, DMF, MeCN) is listed as “readily dissolves”. The particle radius result in data set [3] is “about 260 nm”. In data set [4], the “thickness of the protein corona” value is 9.0+/−2.1 nm. The average particle diameter in data set [4] (assembled in the absence of Tfn-AF568) was found to be 100 nm; in data set [4] (assembled in the presence of Tfn-AF568, excluding corona) it was 51 nm. In addition, the bead diameter in data set [5] (307.5×10^−6 M CD3ac starting concentration, 10×10^−6 M RB, confocal fluorescence microscopy) is given as 1.35 μm. The “density of CD3ac precipitates (ρCD3ac)” value in data set [5] (from bead count and bead volume fraction) is given as “≈ 1.35 g/cm^3”.

Consider `CC(C)C[C@@H](NC(=O)[C@H](Cc1c[nH]c2ccccc12)NC(=O)[C@@H](CC(C)C)NC(=O)[C@H](Cc1c[nH]c2ccccc12)NC(=O)[C@@H](CC(C)C)NC(=O)[C@H](Cc1c[nH]c2ccccc12)NC(=O)[C@H](CCCCN)NC(=O)[C@H](CCCCN)NC(=O)[C@H](CCCCN)NC(=O)[C@@H](N)CCCCN)C(=O)N[C@@H](Cc1c[nH]c2ccccc12)C(N)=O` (racemic) [CD4, H-LK-LK-LK-LK-LW-DL-LW-DL-LW-DL-LW-NH2], for which, in data set [1], the solubility in water result is listed as “water soluble”.

Consider Flutax-2, for which the “Flutax-2 emission in the cytosol” value with CHO cells was “could not be detected”.

These data come from patent publication US8828928B2, “Amphiphilic peptides and peptide particles” (President and Fellows of Harvard College, priority 2011, dated 2014).
